# Experimental data published in ChEMBL document CHEMBL2384934, “Discovery of 3-phenyl-1H-5-pyrazolylamine derivatives containing a urea pharmacophore as potent and efficacious inhibitors of FMS-like tyrosine kinase-3 (FLT3)” (Bioorg Med Chem, 2013).
# Assays:
# [1] = target: Mitogen-activated protein kinase 14 (Homo sapiens) (UniProt Q16539); assay: Inhibition of MAPK14 (unknown origin) at 1 uM
# [2] = target: Fibroblast growth factor receptor 1 (Homo sapiens) (UniProt P11362); assay: Inhibition of FGFR1 (unknown origin) at 1 uM
# [3] = target: Non-receptor tyrosine-protein kinase TYK2 (Homo sapiens) (UniProt P29597); assay: Inhibition of TYK2 (unknown origin) at 1 uM
# [4] = Plasma clearance in Sprague-Dawley rat at 2 mg/kg, iv; type: ADME, organism-based; set-up: dose 2 mg/kg, route intravenous
# [5] = target: Inhibitor of nuclear factor kappa-B kinase subunit epsilon (Homo sapiens) (UniProt Q14164); assay: Inhibition of IKBKE (unknown origin) at 1 uM
# [6] = target: Mitogen-activated protein kinase 10 (Homo sapiens) (UniProt P53779); assay: Inhibition of MAPK10 (unknown origin) at 1 uM
# MOLM-13 [7] = assay: Antitumor activity against human MOLM13 cells xenografted in nu/nu mouse at 1mg/kg, iv qd administered on days 1 to 5 and days 8 to 12 measured on day 11; type: functional; conditions: MOLM-13, iv, 264 h, read-out: TGI
# [8] = target: Hepatocyte growth factor receptor (Homo sapiens) (UniProt P08581); assay: Inhibition of MET (unknown origin) at 1 uM by kinase Glo assay
# [9] = target: Tyrosine-protein kinase JAK2 (Homo sapiens) (UniProt O60674); assay: Inhibition of JAK2 (unknown origin) at 1 uM
# [10] = target: AMP-activated protein kinase (AMPK) alpha-1/beta-1/gamma-1 (Homo sapiens) (UniProt P54619+Q9Y478+Q13131); assay: Inhibition of Ampk A1/B1/G1 (unknown origin) at 1 uM; type: protein-complex assay
# [11] = target: Mast/stem cell growth factor receptor Kit (Homo sapiens) (UniProt P10721); assay: Inhibition of KIT (unknown origin) at 1 uM
# [12] = target: Macrophage colony-stimulating factor 1 receptor (Homo sapiens) (UniProt P07333); assay: Inhibition of CSF1R (unknown origin) at 1 uM
# K562 = assay: cells; conditions: Homo sapiens, K562, 72 h
# Description: Cytotoxicity against human FLT3-negative K562 cells harboring wild type BCR/ABL after 72 hrs by MTS assay
# MOLM-13 [13] = assay: Antitumor activity against human MOLM13 cells xenografted in nu/nu mouse at 10 mg/kg, iv qd administered on days 1 to 5 and day 8 to 12 measured after 48 days; type: functional; conditions: read-out: TGI
# [14] = target: Inhibitor of nuclear factor kappa-B kinase subunit beta (Homo sapiens) (UniProt O14920); assay: Inhibition of IKBKB (unknown origin) at 1 uM
# [15] = target: Vascular endothelial growth factor receptor 3 (Homo sapiens) (UniProt P35916); assay: Inhibition of FLT4 (unknown origin) at 1 uM by kinase Glo assay
# MOLM-13 [16] = assay: Antitumor activity against human MOLM13 cells xenografted in nu/nu mouse at 3 mg/kg, iv qd administered on days 1 to 5 and days 8 to 12 measured on day 11; type: functional; conditions: MOLM-13, 264 h, read-out: TGI
# [17] = target: Proto-oncogene tyrosine-protein kinase Src (Homo sapiens) (UniProt P12931); assay: Inhibition of SRC (unknown origin) at 1 uM
# [18] = target: Macrophage-stimulating protein receptor (Homo sapiens) (UniProt Q04912); assay: Inhibition of MST1R (unknown origin) at 1 uM
# [19] = target: Platelet-derived growth factor receptor beta (Homo sapiens) (UniProt P09619); assay: Inhibition of PDGFRB (unknown origin) at 1 uM by kinase Glo assay
# [20] = target: Insulin-like growth factor 1 receptor (Homo sapiens) (UniProt P08069); assay: Inhibition of IGF1R (unknown origin) at 1 uM
# [21] = target: T1, Receptor-type tyrosine-protein kinase FLT3 (Homo sapiens, UniProt P36888); assay: biochemical; type: cell-based, Sf9
# T1 sequence (P36888 whole entry): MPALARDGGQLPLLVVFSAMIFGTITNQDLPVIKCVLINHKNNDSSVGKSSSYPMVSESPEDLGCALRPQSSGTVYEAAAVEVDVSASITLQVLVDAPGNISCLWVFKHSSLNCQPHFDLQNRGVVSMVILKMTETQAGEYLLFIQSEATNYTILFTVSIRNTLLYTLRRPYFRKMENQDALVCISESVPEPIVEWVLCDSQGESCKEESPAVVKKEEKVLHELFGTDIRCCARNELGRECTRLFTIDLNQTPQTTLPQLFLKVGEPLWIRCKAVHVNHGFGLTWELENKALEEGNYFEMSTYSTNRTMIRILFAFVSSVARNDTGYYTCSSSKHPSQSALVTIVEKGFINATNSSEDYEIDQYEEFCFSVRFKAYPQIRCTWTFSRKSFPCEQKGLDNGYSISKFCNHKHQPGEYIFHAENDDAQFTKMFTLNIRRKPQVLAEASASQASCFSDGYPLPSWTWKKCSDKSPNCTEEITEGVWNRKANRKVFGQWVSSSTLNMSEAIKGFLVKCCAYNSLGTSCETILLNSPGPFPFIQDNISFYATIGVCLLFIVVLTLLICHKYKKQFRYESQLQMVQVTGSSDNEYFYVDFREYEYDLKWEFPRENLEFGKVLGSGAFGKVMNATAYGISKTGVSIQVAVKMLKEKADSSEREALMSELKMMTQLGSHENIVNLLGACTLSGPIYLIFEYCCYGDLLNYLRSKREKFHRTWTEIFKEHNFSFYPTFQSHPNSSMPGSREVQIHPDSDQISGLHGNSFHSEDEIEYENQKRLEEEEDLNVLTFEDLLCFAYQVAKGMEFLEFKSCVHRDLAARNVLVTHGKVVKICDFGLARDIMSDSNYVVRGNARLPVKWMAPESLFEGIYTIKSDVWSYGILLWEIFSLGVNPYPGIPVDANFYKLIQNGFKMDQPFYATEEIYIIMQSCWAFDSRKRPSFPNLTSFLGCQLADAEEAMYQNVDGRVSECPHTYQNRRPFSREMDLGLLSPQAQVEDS
# Description: Inhibition of wild type GST tagged FLT3 kinase (567 to 993) (unknown origin) transfected in insect sf9 cells after 4 hrs by wallac counting analysis
# [22] = target: Ribosomal protein S6 kinase beta-1 (Homo sapiens) (UniProt P23443); assay: Inhibition of RPS6KB1 (unknown origin) at 1 uM
# [23] = target: Vascular endothelial growth factor receptor 2 (Homo sapiens, UniProt P35968); assay: Inhibition of KDR (unknown origin) at 1 uM by kinase Glo assay
# MV4-11 = assay: Cytotoxicity against human MV4-11 cells harboring FLT3/ITD mutant after 72 hrs by MTS assay; type: functional; conditions: MV4-11, 72 h
# [24] = target: Tyrosine-protein kinase BTK (Homo sapiens) (UniProt Q06187); assay: Inhibition of BTK (unknown origin) at 1 uM
# [25] = target: Receptor-type tyrosine-protein kinase FLT3 (Homo sapiens, UniProt P36888, ITD); assay: Inhibition of FLT3/ITD mutant-mediated stat5 phosphorylation in human MV4-11 cells after 1 hr by Western blot analysis; type: cell-based
# [26] = target: Serine/threonine-protein kinase MRCK alpha (Homo sapiens) (UniProt Q5VT25); assay: Inhibition of MRCKA (unknown origin) at 1 uM
# Sequence of Inhibitor of nuclear factor kappa-B kinase subunit beta (Homo sapiens) (O14920 whole entry): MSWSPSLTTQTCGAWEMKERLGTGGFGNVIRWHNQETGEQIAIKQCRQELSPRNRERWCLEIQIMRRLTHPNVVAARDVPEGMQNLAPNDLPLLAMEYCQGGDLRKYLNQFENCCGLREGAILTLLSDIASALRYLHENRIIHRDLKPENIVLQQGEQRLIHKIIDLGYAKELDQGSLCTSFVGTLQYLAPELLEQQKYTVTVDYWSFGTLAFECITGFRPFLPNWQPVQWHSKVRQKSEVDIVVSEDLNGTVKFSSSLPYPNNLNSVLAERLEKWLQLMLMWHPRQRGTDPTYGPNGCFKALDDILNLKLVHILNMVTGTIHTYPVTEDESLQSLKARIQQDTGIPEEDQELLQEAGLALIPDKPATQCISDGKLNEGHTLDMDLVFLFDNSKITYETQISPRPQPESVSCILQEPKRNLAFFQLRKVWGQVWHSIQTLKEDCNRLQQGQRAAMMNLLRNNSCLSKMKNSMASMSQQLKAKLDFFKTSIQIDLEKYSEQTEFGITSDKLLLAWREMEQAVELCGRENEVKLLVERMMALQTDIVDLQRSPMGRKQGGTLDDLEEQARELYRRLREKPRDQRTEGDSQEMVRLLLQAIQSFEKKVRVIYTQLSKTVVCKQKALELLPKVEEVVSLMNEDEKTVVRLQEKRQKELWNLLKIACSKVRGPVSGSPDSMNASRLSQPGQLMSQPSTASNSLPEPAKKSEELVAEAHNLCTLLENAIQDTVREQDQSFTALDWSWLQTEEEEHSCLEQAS
# Sequence of Platelet-derived growth factor receptor beta (Homo sapiens) (P09619 whole entry): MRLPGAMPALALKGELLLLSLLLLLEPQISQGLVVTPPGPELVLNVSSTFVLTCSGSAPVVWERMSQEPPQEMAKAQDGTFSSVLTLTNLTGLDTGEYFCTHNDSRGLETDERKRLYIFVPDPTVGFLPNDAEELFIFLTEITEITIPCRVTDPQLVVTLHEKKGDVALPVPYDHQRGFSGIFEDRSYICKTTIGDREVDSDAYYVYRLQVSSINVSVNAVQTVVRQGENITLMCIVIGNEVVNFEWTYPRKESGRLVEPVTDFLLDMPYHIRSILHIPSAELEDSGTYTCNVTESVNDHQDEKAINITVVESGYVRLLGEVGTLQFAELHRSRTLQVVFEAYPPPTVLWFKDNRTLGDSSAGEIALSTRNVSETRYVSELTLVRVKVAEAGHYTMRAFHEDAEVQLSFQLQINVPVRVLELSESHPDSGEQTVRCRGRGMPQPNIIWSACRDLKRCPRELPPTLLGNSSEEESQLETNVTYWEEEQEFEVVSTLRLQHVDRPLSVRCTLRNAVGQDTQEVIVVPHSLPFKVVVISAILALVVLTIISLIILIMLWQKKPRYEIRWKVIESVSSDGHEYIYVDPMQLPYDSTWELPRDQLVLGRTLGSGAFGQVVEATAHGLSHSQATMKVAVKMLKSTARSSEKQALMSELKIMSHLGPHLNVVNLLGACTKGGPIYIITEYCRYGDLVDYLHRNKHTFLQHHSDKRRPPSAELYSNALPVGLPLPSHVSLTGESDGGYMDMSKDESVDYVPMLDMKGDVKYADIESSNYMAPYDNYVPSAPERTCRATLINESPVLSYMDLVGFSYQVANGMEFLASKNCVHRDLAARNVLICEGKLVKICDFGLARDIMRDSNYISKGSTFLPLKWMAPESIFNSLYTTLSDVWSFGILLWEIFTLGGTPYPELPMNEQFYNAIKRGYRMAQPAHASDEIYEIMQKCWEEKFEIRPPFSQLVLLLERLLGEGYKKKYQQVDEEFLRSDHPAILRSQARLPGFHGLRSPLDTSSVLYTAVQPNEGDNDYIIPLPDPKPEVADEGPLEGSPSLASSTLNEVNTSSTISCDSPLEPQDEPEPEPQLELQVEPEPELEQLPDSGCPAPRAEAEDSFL
# Sequence of Hepatocyte growth factor receptor (Homo sapiens) (P08581 whole entry): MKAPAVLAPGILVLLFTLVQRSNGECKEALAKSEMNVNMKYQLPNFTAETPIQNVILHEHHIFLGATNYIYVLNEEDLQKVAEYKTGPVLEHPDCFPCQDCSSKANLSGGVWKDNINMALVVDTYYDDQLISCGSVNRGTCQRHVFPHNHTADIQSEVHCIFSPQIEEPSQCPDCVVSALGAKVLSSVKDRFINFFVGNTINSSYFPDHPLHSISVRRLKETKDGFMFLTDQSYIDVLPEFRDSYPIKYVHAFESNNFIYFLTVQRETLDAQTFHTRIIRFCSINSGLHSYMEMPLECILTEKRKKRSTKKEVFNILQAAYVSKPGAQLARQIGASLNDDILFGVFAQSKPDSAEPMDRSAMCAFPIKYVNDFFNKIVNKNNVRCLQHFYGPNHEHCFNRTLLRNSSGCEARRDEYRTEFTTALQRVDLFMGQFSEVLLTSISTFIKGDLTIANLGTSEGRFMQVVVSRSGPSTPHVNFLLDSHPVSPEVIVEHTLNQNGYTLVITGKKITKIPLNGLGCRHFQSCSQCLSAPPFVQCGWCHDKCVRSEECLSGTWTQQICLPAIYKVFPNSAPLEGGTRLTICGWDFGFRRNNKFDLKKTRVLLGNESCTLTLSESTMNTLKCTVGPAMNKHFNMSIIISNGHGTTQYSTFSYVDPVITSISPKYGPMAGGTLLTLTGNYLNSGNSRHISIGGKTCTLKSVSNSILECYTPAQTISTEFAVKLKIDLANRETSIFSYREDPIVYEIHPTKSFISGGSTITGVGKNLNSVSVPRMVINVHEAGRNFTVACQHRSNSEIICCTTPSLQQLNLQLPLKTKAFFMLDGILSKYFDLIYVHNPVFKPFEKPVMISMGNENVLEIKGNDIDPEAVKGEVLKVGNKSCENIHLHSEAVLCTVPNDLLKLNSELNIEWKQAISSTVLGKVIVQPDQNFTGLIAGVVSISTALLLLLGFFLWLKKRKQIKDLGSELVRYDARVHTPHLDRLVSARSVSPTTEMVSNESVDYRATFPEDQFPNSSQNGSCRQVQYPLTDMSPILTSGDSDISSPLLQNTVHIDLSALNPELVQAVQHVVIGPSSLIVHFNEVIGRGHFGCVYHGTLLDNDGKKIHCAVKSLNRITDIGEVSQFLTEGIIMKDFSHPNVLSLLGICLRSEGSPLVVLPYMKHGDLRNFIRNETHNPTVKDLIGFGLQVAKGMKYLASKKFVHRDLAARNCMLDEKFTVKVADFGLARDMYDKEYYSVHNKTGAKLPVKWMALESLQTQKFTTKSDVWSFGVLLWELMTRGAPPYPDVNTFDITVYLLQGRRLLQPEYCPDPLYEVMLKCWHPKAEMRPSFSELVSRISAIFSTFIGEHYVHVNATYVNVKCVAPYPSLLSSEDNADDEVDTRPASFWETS
# Sequence of Vascular endothelial growth factor receptor 3 (Homo sapiens) (P35916 whole entry): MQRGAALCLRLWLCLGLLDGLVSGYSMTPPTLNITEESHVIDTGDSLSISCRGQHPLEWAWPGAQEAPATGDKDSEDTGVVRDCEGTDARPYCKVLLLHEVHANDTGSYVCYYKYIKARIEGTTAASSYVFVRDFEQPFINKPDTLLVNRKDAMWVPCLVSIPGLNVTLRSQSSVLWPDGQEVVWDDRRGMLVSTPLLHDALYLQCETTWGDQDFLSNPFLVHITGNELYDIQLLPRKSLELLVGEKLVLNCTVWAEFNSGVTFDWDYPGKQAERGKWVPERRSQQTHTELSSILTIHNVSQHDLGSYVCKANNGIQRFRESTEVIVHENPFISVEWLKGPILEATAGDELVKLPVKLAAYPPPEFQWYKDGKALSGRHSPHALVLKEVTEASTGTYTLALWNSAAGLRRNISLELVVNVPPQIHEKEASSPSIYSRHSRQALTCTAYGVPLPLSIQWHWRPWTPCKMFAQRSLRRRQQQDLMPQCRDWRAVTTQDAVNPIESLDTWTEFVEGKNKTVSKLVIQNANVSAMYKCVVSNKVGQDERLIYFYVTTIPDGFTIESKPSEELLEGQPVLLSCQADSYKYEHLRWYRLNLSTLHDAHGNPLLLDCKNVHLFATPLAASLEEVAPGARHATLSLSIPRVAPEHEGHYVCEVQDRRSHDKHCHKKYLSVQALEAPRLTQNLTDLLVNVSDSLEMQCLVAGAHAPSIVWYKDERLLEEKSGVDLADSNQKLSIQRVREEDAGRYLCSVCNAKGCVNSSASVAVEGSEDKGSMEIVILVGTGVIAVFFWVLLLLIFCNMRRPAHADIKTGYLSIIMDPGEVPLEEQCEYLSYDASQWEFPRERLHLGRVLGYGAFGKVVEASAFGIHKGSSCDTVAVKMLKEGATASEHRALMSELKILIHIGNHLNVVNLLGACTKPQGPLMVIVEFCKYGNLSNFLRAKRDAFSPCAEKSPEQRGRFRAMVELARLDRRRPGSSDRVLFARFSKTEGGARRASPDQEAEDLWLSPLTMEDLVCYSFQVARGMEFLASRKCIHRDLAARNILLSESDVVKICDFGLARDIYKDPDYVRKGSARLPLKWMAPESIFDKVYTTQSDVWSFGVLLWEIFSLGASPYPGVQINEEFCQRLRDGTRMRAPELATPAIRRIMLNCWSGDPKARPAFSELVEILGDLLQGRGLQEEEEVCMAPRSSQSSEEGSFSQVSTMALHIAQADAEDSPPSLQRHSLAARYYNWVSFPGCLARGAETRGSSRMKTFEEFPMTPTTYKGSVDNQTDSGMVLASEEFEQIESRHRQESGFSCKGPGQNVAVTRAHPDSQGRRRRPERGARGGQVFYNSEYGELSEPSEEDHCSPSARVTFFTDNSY
# Sequence of Mitogen-activated protein kinase 14 (Homo sapiens) (Q16539 whole entry): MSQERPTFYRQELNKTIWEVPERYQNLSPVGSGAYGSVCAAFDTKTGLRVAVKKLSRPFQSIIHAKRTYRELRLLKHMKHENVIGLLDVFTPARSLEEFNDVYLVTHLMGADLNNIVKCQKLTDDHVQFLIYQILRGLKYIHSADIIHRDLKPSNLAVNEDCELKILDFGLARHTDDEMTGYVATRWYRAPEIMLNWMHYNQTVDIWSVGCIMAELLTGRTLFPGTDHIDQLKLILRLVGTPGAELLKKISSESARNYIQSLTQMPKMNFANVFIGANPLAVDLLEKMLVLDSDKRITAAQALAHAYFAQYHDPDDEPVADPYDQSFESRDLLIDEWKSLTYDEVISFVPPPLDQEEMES
smiles,measurement,setting,value
CC(C)(C)c1cc(NC(=O)NCc2ccc(-c3cc(NC(=O)c4ccc(OCCN5CCOCC5)cc4)[nH]n3)cc2)no1,inhibition,[1],3%
same,inhibition,[2],48%
same,inhibition,[3],86%
same,clearance,[4],10.7 mL/min/kg
same,inhibition,[5],-5%
same,inhibition,[6],-3%
same,inhibition in vivo at 1 mg/kg,MOLM-13 [7],66%
same,inhibition,[8],40%
same,inhibition,[9],79%
same,inhibition,[10],94%
same,inhibition,[11],68%
same,inhibition,[12],95%
same,GI50,K562,11.8 µM
same,inhibition in vivo at 10 mg/kg,MOLM-13 [13],70%
same,inhibition,[14],-2%
same,inhibition,[15],86%
same,inhibition in vivo at 3 mg/kg,MOLM-13 [16],7%
same,inhibition,[17],35%
same,inhibition,[18],13%
same,inhibition,[19],97%
same,inhibition,[20],-1%
same,IC50,[21],0.018 µM
same,inhibition,[22],41%
same,inhibition,[23],99%
same,GI50,MV4-11,0.002 µM
same,inhibition,[24],-6%
same,IC50,[25],0.001 µM
same,inhibition,[26],-2%
